Literature values, collected in patent US10357529B2, “Natural formulation for treating hangover” (RVRS, LLC, priority 2016, dated 2019).

Experiments:
[1] = test system: rats
[2] = test system: GABAAR; settings: 1 μM; hippocampus and cultured neurons
[3] = test system: BZ-sites on GABAAR; settings: competitive; read-out: IC50, inhibition of BZ-site [3H]flunitrazepam binding

IC50 [3]: 4.36 µM
SMILES: O=C1c2c(O)cc(O)cc2O[C@H](c2cc(O)c(O)c(O)c2)[C@H]1O [DHM, Dihydromyricetin]
EtOH consumption in an intermittent voluntary EtOH intake paradigm [1]: greatly reduced EtOH consumption
effect on acute alcohol (EtOH) intoxication and withdrawal signs ([1]; 1 mg/kg, i.p. injection): counteracted acute alcohol (EtOH) intoxication
effect on EtOH-induced potentiation of GABAAR's and GABAAR plasticity [2]: antagonized both acute EtOH-induced potentiation of GABAAR's and EtOH exposure/withdrawal-induced GABAAR plasticity
